Patent US8871753B2, “Macrocyclic compounds and their use as kinase inhibitors” (Incyte Corporation, priority 2008, dated 2014)
Counter-ions that a name gives are not always drawn.

Experiments:
Format in all cases: biochemical
[1] = target: T1, human JAK3 (a.a. 781-1124) (Homo sapiens, UniProt P52333); assay: In vitro JAK kinase assay (HTRF, phosphorylation of a biotinylated peptide), JAK3; settings: Table B1
T1 construct: JAK3 (a.a. 781-1124); His tag (N); made in house; host or cells: insect cells (baculovirus)
Summary of the method: (§1)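 Kinase reactions ran at room temperature for 1 h with ATP matched per isoform (JAK1 90 μM, JAK2 30 μM, JAK3 3 μM). After an EDTA stop, the phosphorylated biotin-peptide was read by HTRF using Eu-Py20 and SA-APC after 40 min binding.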

[2] = target: T2, human JAK1 (a.a. 837-1142) (Homo sapiens, UniProt P23458); assay: In vitro JAK kinase assay (HTRF, phosphorylation of a biotinylated peptide), JAK1; settings: Table B1; read-out: JAK1 IC50
T2 construct: human JAK1 (a.a. 837-1142); His tag (N); made in house; host or cells: insect cells (baculovirus)
Summary of the method: as §1

TYK2 = TYK2 (Homo sapiens, UniProt P29597); assay: TYK2 kinase inhibition (Table A1); settings: Table B1
[3] = target: T3, human JAK2 (a.a. 828-1132) (Homo sapiens, UniProt O60674); assay: In vitro JAK kinase assay (HTRF, phosphorylation of a biotinylated peptide), JAK2; settings: Table B1
T3 construct: JAK2 (a.a. 828-1132); His tag (N); made in house; host or cells: insect cells (baculovirus)
Summary of the method: as §1

[4] = target: T4, Recombinant Human Anaplastic Lymphoma Kinase (Homo sapiens, UniProt Q9UM73); assay: ALK HTRF kinase assay; settings: for IC50: Table B1, cells without percent sign; for ALK % of inhibition at a concentration of 500 nM or 1 mM: compound at a concentration of 500 nM or 1 mM (not specified), cells shown as percentage
T4 construct: purchased Invitrogen, Carlsbad, Calif
Summary of the method: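 Recombinant human ALK with biotinylated peptide substrate; phosphorylation detected by HTRF using Eu-labelled anti-phosphotyrosine antibody and streptavidin-allophycocyanin. IC50 from a sigmoidal fit with Hill slope.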

T1 sequence (P52333 781-1124): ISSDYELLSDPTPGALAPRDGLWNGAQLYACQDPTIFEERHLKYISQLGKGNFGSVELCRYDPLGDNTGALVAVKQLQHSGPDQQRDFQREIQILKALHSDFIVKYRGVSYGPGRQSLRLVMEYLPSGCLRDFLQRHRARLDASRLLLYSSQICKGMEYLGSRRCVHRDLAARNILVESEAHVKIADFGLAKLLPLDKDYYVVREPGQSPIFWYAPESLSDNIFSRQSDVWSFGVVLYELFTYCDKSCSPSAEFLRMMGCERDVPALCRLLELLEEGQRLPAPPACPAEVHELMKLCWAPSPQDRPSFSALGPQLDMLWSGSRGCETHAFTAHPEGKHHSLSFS
T3 sequence (O60674 828-1132): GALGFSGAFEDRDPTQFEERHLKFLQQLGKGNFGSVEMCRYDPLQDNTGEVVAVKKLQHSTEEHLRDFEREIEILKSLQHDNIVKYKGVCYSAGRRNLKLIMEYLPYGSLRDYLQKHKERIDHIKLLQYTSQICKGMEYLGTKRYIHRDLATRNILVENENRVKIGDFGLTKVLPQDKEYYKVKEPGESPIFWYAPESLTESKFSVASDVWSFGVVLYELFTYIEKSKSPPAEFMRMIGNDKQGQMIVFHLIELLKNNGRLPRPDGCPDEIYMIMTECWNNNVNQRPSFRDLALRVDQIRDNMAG
T2 sequence (P23458 849-1154): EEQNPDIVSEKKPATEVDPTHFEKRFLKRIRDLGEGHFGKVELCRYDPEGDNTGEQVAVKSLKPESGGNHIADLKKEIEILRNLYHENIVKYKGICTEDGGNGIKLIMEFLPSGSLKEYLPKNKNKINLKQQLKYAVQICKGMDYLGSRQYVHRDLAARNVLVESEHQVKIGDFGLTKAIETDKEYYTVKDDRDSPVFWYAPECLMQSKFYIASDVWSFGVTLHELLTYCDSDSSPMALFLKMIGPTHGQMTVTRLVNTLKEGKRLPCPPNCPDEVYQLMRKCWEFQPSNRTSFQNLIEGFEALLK
TYK2, sequence (P29597 whole entry): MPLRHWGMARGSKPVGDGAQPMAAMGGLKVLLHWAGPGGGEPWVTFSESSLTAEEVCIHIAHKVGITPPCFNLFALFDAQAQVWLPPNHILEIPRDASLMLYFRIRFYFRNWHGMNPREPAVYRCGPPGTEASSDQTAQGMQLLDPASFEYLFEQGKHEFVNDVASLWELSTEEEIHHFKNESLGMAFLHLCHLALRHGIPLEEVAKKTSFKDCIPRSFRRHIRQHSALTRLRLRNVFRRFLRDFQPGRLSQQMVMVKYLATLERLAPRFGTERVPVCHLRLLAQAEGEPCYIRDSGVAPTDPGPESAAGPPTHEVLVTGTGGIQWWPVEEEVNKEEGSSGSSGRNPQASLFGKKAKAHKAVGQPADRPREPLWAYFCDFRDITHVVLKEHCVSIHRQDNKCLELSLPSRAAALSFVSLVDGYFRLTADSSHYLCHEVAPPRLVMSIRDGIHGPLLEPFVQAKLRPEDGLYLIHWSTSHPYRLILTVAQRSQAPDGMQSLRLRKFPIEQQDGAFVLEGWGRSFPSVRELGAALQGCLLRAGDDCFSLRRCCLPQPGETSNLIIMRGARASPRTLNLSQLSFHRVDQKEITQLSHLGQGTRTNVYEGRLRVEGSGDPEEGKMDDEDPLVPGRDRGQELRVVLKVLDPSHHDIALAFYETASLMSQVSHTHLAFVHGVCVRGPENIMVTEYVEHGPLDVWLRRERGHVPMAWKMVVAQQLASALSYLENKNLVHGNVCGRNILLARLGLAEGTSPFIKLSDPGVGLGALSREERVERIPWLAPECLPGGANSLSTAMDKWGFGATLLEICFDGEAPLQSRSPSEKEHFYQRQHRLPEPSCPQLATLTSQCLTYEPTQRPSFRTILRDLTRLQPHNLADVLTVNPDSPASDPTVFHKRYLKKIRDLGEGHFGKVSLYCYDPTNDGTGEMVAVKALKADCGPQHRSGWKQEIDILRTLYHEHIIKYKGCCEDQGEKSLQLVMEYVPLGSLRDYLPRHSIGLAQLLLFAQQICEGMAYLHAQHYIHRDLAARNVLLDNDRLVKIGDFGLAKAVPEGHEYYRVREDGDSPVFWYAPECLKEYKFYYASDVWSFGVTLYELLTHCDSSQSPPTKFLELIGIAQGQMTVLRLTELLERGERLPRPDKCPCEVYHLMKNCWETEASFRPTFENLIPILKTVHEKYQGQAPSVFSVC
T4 sequence (Q9UM73 19-1620): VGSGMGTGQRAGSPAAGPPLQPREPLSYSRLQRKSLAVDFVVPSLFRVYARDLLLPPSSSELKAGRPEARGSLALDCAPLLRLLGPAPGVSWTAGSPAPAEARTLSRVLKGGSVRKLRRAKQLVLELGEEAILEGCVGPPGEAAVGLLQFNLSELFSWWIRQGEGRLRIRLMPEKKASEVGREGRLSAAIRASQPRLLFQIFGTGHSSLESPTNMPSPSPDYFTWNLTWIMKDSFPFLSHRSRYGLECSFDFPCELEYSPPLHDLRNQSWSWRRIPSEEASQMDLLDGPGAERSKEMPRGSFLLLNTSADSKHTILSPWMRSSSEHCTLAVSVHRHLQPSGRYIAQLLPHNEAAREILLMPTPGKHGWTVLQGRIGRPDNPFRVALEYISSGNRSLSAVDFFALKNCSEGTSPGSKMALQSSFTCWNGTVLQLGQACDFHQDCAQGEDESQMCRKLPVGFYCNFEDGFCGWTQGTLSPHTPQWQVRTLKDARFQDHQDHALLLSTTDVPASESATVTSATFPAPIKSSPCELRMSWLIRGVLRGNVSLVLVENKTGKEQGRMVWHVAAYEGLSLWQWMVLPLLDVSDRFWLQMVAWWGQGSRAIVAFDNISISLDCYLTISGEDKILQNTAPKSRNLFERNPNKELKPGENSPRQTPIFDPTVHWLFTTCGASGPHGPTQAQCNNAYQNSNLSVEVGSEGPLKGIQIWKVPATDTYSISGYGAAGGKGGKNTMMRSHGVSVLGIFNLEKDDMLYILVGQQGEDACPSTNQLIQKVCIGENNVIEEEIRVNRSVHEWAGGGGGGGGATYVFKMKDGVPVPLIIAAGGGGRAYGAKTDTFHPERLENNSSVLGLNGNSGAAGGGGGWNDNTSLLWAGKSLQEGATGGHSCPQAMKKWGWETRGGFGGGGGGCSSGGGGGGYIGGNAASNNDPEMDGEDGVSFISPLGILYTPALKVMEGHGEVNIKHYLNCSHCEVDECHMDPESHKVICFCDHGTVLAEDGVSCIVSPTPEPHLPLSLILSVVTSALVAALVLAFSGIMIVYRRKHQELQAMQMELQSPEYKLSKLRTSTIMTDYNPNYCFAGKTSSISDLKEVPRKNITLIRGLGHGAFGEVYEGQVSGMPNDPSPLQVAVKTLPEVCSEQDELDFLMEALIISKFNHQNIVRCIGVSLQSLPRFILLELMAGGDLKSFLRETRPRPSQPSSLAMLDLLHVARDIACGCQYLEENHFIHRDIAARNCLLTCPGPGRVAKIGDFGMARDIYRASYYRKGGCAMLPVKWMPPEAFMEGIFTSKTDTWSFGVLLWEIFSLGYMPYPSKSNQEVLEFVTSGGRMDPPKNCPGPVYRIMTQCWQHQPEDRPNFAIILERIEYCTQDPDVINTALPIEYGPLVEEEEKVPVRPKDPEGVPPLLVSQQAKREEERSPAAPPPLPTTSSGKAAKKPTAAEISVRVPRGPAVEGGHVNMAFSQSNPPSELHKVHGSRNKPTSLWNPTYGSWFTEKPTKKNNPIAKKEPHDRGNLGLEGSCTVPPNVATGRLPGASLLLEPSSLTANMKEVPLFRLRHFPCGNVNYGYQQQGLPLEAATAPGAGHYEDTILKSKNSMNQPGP

SMILES | IC50 [1] | IC50 [2] | IC50 (TYK2) | IC50 [3] | IC50 [4] | ALK % of inhibition at a concentration of 500 nM or 1 mM [4]
N#Cc1ccc(C(=O)Nc2ccc3cc2CCc2cccc(c2)Nc2ncc(Cl)c(n2)N3)cc1 [Example B64, N-[6-Chloro-2,4,8,22-tetraazatetracyclo[14.3.1.1(3,7).1(9,13)]docosa-1(20), 3(22),4,6,9(21),10,12,16,18-nonaen-12-yl]-4-cyanobenzamide trifluoroacetate] | 10 nM | 1.2 nM | 3.2 nM | 0.73 nM | 150 nM | –
N#Cc1cccc(C(=O)Nc2ccc3cc2CCc2cccc(c2)Nc2ncc(Cl)c(n2)N3)c1 [Example B65, N-[6-Chloro-2,4,8,22-tetraazatetracyclo[14.3.1.1(3,7).1(9,13)]docosa-1(20), 3(22),4,6,9(21),10,12,16,18-nonaen-12-yl]-3-cyanobenzamide trifluoroacetate] | 8.8 nM | 3.4 nM | 5.9 nM | 1.8 nM | 290 nM | –
COc1cccc(C(=O)Nc2ccc3cc2CCc2cccc(c2)Nc2ncc(Cl)c(n2)N3)c1 [Example B66, N-[6-Chloro-2,4,8,22-tetraazatetracyclo[14.3.1.1(3,7).1(9,13)]docosa-1(20), 3(22),4,6,9(21),10,12,16,18-nonaen-12-yl]-3-methoxybenzamide trifluoroacetate] | 13 nM | 3 nM | 4.5 nM | 1.6 nM | 310 nM | –
COc1ccc(C(=O)Nc2ccc3cc2CCc2cccc(c2)Nc2ncc(Cl)c(n2)N3)cc1 [Example B67, N-[6-Chloro-2,4,8,22-tetraazatetracyclo[14.3.1.1(3,7).1(9,13)]docosa-1(20), 3(22),4,6,9(21),10,12,16,18-nonaen-12-yl]-4-methoxybenzamide trifluoroacetate] | 15 nM | 3.2 nM | 6 nM | 1.9 nM | 220 nM | –
Cc1cc(C(=O)Nc2ccc3cc2CCc2cccc(c2)Nc2ncc(Cl)c(n2)N3)no1 [Example B68, N-[6-Chloro-2,4,8,22-tetraazatetracyclo[14.3.1.1(3,7).1(9,13)]docosa-1(20), 3(22),4,6,9(21),10,12,16,18-nonaen-12-yl]-5-methylisoxazole-3-carboxamide trifluoroacetate] | 19 nM | 1.4 nM | 3.6 nM | 2.3 nM | – | 19%
O=C(Nc1ccc2cc1CCc1cccc(c1)Nc1ncc(Cl)c(n1)N2)c1ccc(Cl)nc1 [Example B69, 6-Chloro-N-[6-chloro-2,4,8,22-tetraazatetracyclo[14.3.1.1(3,7).1(9,13)]docosa-1(20),3(22),4,6,9(21),10,12,16,18-nonaen-12-yl]nicotinamide bis(trifluoroacetate)] | 3.6 nM | 0.45 nM | 2.3 nM | 0.6 nM | – | 68%
O=C(Nc1ccc2cc1CCc1cccc(c1)Nc1ncc(Cl)c(n1)N2)c1cccnc1Cl [Example B70, 2-Chloro-N-[6-chloro-2,4,8,22-tetraazatetracyclo[14.3.1.1(3,7).1(9,13)]docosa-1(20),3(22),4,6,9(21),10,12,16,18-nonaen-12-yl]nicotinamide bis(trifluoroacetate)] | 2.4 nM | 1.5 nM | 2.5 nM | 0.64 nM | – | 82%
O=C(Nc1ccc2cc1CCc1cccc(c1)Nc1ncc(Cl)c(n1)N2)c1ccc2c(c1)OCO2 [Example B71, N-[6-Chloro-2,4,8,22-tetraazatetracyclo[14.3.1.1(3,7).1(9,13)]docosa-1(20), 3(22),4,6,9(21),10,12,16,18-nonaen-12-yl]-1,3-benzodioxole-5-carboxamide trifluoroacetate] | 24 nM | 1.9 nM | 9.6 nM | 4.9 nM | – | 43%
O=C(Nc1ccc2cc1CCc1cccc(c1)Nc1ncc(Cl)c(n1)N2)c1cnc2ccccc2n1 [Example B72, N-[6-Chloro-2,4,8,22-tetraazatetracyclo[14.3.1.1(3,7).1(9,13)]docosa-1(20), 3(22),4,6,9(21),10,12,16,18-nonaen-12-yl]quinoxaline-2-carboxamide bis(trifluoroacetate)] | > 500 nM | 200 nM | 77 nM | 55 nM | – | 12%
CC(C)(C)c1ccc(C(=O)Nc2ccc3cc2CCc2cccc(c2)Nc2ncc(Cl)c(n2)N3)cc1 [Example B73, 4-tert-Butyl-N-[6-chloro-2,4,8,22-tetraazatetracyclo[14.3.1.1(3,7).1(9,13)]docosa-1(20),3(22),4,6,9(21),10,12,16,18-nonaen-12-yl]benzamide trifluoroacetate] | 178 nM | 80 nM | 154 nM | 103 nM | – | 21%
O=C(Nc1ccc2cc1CCc1cccc(c1)Nc1ncc(Cl)c(n1)N2)c1ccc(C(F)(F)F)cc1 [Example B75, N-[6-Chloro-2,4,8,22-tetraazatetracyclo[14.3.1.1(3,7).1(9,13)]docosa-1(20), 3(22),4,6,9(21),10,12,16,18-nonaen-12-yl]-4-(trifluoromethyl)benzamide trifluoroacetate] | 80 nM | 4.7 nM | 30 nM | 30 nM | – | 17%
O=C(Nc1ccc2cc1CCc1cccc(c1)Nc1ncc(Cl)c(n1)N2)c1cccc(C(F)(F)F)c1 [Example B76, N-[6-Chloro-2,4,8,22-tetraazatetracyclo[14.3.1.1(3,7).1(9,13)]docosa-1(20), 3(22),4,6,9(21),10,12,16,18-nonaen-12-yl]-3-(trifluoromethyl)benzamide trifluoroacetate] | 61 nM | 33 nM | 25 nM | 14 nM | – | 28%
O=C(Nc1ccc2cc1CCc1cccc(c1)Nc1ncc(Cl)c(n1)N2)c1ccc(C(F)(F)F)nc1 [Example B77, N-[6-Chloro-2,4,8,22-tetraazatetracyclo[14.3.1.1(3,7).1(9,13)]docosa-1(20), 3(22),4,6,9(21),10,12,16,18-nonaen-12-yl]-6-(trifluoromethyl)nicotinamide bis(trifluoroacetate)] | 7.6 nM | 0.84 nM | 8 nM | 2.2 nM | – | 54%
Cc1ncoc1C(=O)Nc1ccc2cc1CCc1cccc(c1)Nc1ncc(Cl)c(n1)N2 [Example B78, N-[6-Chloro-2,4,8,22-tetraazatetracyclo[14.3.1.1(3,7).1(9,13)]docosa-1(20),3(22),4,6,9(21),10,12,16,18-nonaen-12-yl]-4-methyl-1,3-oxazole-5-carboxamide trifluoroacetate] | 57 nM | 11 nM | 29 nM | 12 nM | – | 44%
O=C(Nc1ccc2cc1CCc1cccc(c1)Nc1ncc(Cl)c(n1)N2)c1ccc2occc2c1 [Example B79, N-[6-Chloro-2,4,8,22-tetraazatetracyclo[14.3.1.1(3,7).1(9,13)]docosa-1(20), 3(22),4,6,9(21),10,12,16,18-nonaen-12-yl]-1-benzofuran-5-carboxamide trifluoroacetate] | 2.8 nM | 0.83 nM | 1.7 nM | 0.58 nM | – | 91%
O=C(Nc1ccc2cc1CCc1cccc(c1)Nc1ncc(Cl)c(n1)N2)c1cnn2ccccc12 [Example B80, N-[6-Chloro-2,4,8,22-tetraazatetracyclo[14.3.1.1(3,7).1(9,13)]docosa-1(20),3(22),4,6,9(21),10,12,16,18-nonaen-12-yl]pyrazolo[1,5-a]pyridine-3-carboxamide bis(trifluoroacetate)] | 1.7 nM | 0.56 nM | 1.2 nM | 0.53 nM | – | 73%
CN(C)c1ccc(C(=O)Nc2ccc3cc2CCc2cccc(c2)Nc2ncc(Cl)c(n2)N3)cc1 [Example B82, N-[6-Chloro-2,4,8,22-tetraazatetracyclo[14.3.1.1(3,7).1(9,13)]docosa-1(20), 3(22),4,6,9(21),10,12,16,18-nonaen-12-yl]-4-(dimethylamino)benzamide bis(trifluoroacetate)] | 44 nM | 7.9 nM | 14 nM | 7.6 nM | – | 39%
O=C(Nc1ccccc1)Nc1ccc2cc1CCc1cccc(c1)Nc1ncc(Cl)c(n1)N2 [Example B83, N-[6-Chloro-2,4,8,22-tetraazatetracyclo[14.3.1.1(3,7).1(9,13)]docosa-1(20), 3(22),4,6,9(21),10,12,16,18-nonaen-12-yl]-N′-phenylurea trifluoroacetate] | 27 nM | 0.56 nM | 5.2 nM | 1.7 nM | 780 nM | –
